78 compounds from a melting point compilation (Tetko et al.) can be followed below.

Compound `N#Cc1c(-c2ccccc2)nn(-c2ccccc2)c1N` registered a melting point of 161 °C.

With `CC1(C)CC(=O)c2cc(-c3ccccc3)n(-c3ccc(F)cc3)c2C1`, the melting point lay within 208 to 210 °C.

Regarding `CC(C)OC(=O)C1(S(=O)(=O)c2ccc([N+](=O)[O-])cc2)CCCCC1`, the melting point worked out at 110 °C.

Compound `O=C(C=Cc1ccccc1)c1cccs1` returned a melting point of 76 to 78 °C.

In turn, `CCOP(=O)(O)C(N)=O` came in with a melting point of 174 °C.

In turn, `O=C(Nc1ccc2cc(OC(=O)c3ccccc3)ccc2c1)c1ccccc1` registered a melting point of 224 to 229 °C.

Consider `CN1C(=O)Cc2cc(S(=O)(=O)Cl)ccc21`, for which the melting point was 154 to 158 °C.

With `Cc1cc(C(C)(C)C)cc(C(C)(C)C)c1O`, the melting point was found to be 51 °C.

For the compound `NC(=O)NNc1ccccc1`, the melting point was in the range of 174 to 176 °C.

In the case of `N#CC1=C(N)Oc2ccc(Cl)cc2C1C(C#N)C#N` (stereo not drawn), the melting point lay within 155 to 156 °C.

For the compound `CC1C=CC(C2CC(=O)OC2=O)C12CC2` (stereo not drawn), the melting point is 98 °C.

In turn, `O=C1OC(OC2OC(=O)c3ccccc32)c2ccccc21` (stereo not drawn) registered a melting point of 222 °C.

`CC1(C)CCCCC1O` (stereo not drawn) came in with a melting point of 8 °C.

In the case of `CCOC(=O)C1=NN(c2ccccc2)C(=O)C1=CC1C(=O)N(c2ccccc2)N=C1C(=O)OCC` (stereo not drawn), the melting point was in the range of 179 to 180 °C.

Compound `Oc1c(Br)cc(Br)cc1-c1cc(Br)cc(Br)c1O` came in with a melting point of 205 °C.

As to `COC(=O)c1nn2ccccc2c1C(=O)OC`, the melting point lay within 72 to 74 °C.

Turning to `CCC(O)c1ccc(-c2ccccc2F)cc1` (stereo not drawn), the melting point lay within 55 to 56 °C.

Consider `COc1ccc(-c2nnc3n2NC(c2ccco2)S3)cc1` (stereo not drawn), for which the melting point was 161 °C.

Compound `N#CCC(=O)c1cccc(Cl)c1` gave a melting point of 81 °C.

Compound `CC1=N[C@]2(c3ccccc3)Oc3c(c4ccccc4c4ccccc34)O[C@@H]2O1` registered a melting point of 166 °C.

On to `Cc1c(C)c(O)c(C)c(C)c1O`, for which the melting point is 233 °C.

Regarding `FC(F)(F)c1ccc(I)cc1`, the melting point is -8 °C.

Compound `OCCN(CCO)CCCc1ccc(COc2ccccc2)cc1` gave a melting point of 63 to 64 °C.

`C[Si](C)(C)O[Si](C)(C)O[Si](C)(C)O[Si](C)(C)O[Si](C)(C)O[Si](C)(C)O[Si](C)(C)C` yielded a melting point of -78 °C.

`CSc1nc(N)nc(N2CCCCC2)n1` showed a melting point of 156 to 158 °C.

`CN1CC(c2ccccc2)(c2ccccc2)C(=O)c2c(cc(-c3ccccc3)c3ccccc23)C1=O` displayed a melting point of 265 °C.

The compound `CCC1(C)CC(=O)NC1=O` (stereo not drawn) came in with a melting point of 65 °C.

Consider `CC(CC1CCCCC1)CC1CCCCC1`, for which the melting point came to 0.6 °C.

In the case of `O=S(=O)(Cl)c1ccc2c(c1)CCO2`, the melting point fell in the range of 84 to 85 °C.

The compound `O=C(NC1(Cc2ccccc2)COCOC1=O)c1ccccc1` (racemic) yielded a melting point of 176 to 178 °C.

On to `CC12CCC3C(CCC4CC(C[N+](=O)[O-])=CCC43C)C1CCC2O` (stereo not drawn), for which the melting point turned out to be 129 °C.

For the compound `Nc1cc(N)cc(C(=O)O)c1`, the melting point is 235 °C.

For `O=C(O)CCc1nc(-c2ccccc2)c(-c2ccccc2)o1`, the melting point was 160 °C.

For the compound `C1CCCCCCCCCC1`, the melting point was -7 °C.

`COc1ccc(C(N)=O)cc1[N+](=O)[O-]` yielded a melting point of 175 °C.

With `COC(C)(C)OC`, the melting point is -47 °C.

`Oc1ccccc1S`: the melting point came out at 20 °C.

The compound `COC(=O)C(C)(C)C(CC(=O)O)c1ccccc1` (stereo not drawn) came in with a melting point of 111 °C.

As to `Cc1ccc(O[C@H]2CC[C@@]3(C)C(=CC[C@H]4[C@@H]5CC[C@H]([C@H](C)CCCC(C)C)[C@@]5(C)CC[C@@H]43)C2)cc1`, the melting point is 148 °C.

For `ClC(COCC(Cl)C(Cl)(Cl)Cl)C(Cl)(Cl)Cl` (stereo not drawn), the melting point was -50 °C.

In the case of `N#C/C(=N\Nc1cccc(C(=O)O)c1)c1nc2ccccc2s1`, the melting point is 200 °C.

`CCC(C)OC(C)CC` (stereo not drawn) showed a melting point of -100 °C.

Consider `c1ccc2c(c1)nnn2C1CCCCC1`, for which the melting point came out at 104 °C.

Turning to `C1CCC2(CC1)OCC(C1OC3(CCCCC3)OC1C1COC3(CCCCC3)O1)O2` (stereo not drawn), the melting point was 82 to 84 °C.

The compound `O=[N+]([O-])c1cc(N(CCO)CCO)ccc1NCCO` came in with a melting point of 95.5 °C.

Consider `CC(C)C1CCC2(C)CC(O)C3(C)CCC12O3` (stereo not drawn), for which the melting point amounted to 114 °C.

Compound `CCCC1CC(C(=O)NC(C(C)Cl)C2OC(SC)C(O)C(O)C2O)N(C)C1` (stereo not drawn) registered a melting point of 141 °C.

The compound `O=C1OC(=O)C2=C1Cc1ccccc1C2` had a melting point of 241 to 247 °C.

For the compound `N#CCc1ccc2c(c1)OCO2`, the melting point was 43 to 45 °C.

`OCc1cc(Cl)cc(Cl)c1O`: the melting point lay in the range of 82 to 83 °C.

Consider `O=C(O)CCCCCO`, for which the melting point is 38 to 40 °C.

With `Cc1cc(Cc2cc(C)cc(C3(C)CCCCC3)c2O)c(O)c(C2(C)CCCCC2)c1`, the melting point worked out at 135 °C.

The compound `O=C1C=CC(=O)C(c2ccccc2)=C1` came in with a melting point of 114 °C.

Consider `Clc1cccc(I)c1Cl`, for which the melting point amounted to 35 °C.

`NC(=O)CN1CCCC1=O` gave a melting point of 152 °C.

Regarding `Sc1nnc(S)s1`, the melting point is 161 to 165 °C.

As for `COC(=O)C1CCC(C)(C(C)(C)O)OC1(C)C` (stereo not drawn), the melting point was 139 °C.

Take `C[C@@]12CCC=C1[C@@H]1CC[C@H]3CC(=O)CC[C@]3(C)[C@H]1CC2`: the melting point was in the range of 115 to 117 °C.

Consider `C1COCCOCCOCCN1`, for which the melting point lay within 53 to 55 °C.

For the compound `O=Cc1ccsc1`, the melting point is -30 °C.

`CC1(C)CC(=O)c2c(C(=O)c3ccc(Cl)cc3)noc2C1`: the melting point stood at 126 °C.

The compound `Nc1c(Br)cc(Br)c(F)c1C(=O)O` yielded a melting point of 235 to 238 °C.

Turning to `C=C[Si](C)(C)O[Si](C)(C)C=C`, the melting point is -99.7 °C.

Consider `Cc1ccc(-c2nnc(CCl)o2)cc1`, for which the melting point fell in the range of 121 to 123 °C.

As to `O=S(=O)(Cl)Cc1ccc(Cl)c(Cl)c1`, the melting point lay within 65 to 68 °C.

Compound `CCCC(=O)N(CSP(=S)(OC)OC)c1ccccc1Cl` came in with a melting point of 42 °C.

In the case of `CNC(=O)n1cc(F)c(=O)[nH]c1=O`, the melting point worked out at 226 °C.

The compound `NCCNCCO` returned a melting point of -28 °C.

Turning to `CCc1c[nH]c(=O)[nH]c1=O`, the melting point came out at 309 °C.

Consider `COc1ccc(C(=O)C(C#N)=C(SC)SC)cc1`, for which the melting point was 60 to 62 °C.

The compound `FC(F)(F)c1ccccc1-n1cc[nH]c1=S` had a melting point of 236 to 238 °C.

In turn, `CCOC(=O)NC(C)(C)Cc1ccc(Cl)cc1` came in with a melting point of 52.8 °C.

Take `CC(C)(Oc1ccc(C2CC2(Cl)Cl)cc1)C(=O)O` (stereo not drawn): the melting point was 115 °C.

Compound `CC(C)(C)OC(=O)N[C@H](COCc1ccccc1)C(=O)O` returned a melting point of 61.5 °C.

With `COc1ccc(C(=O)c2cccs2)cc1`, the melting point lay within 73 to 76 °C.

The compound `O=[N+]([O-])c1ccc(CSc2ncnc3c2ncn3C2OC(CO)C(O)C2O)cc1` (stereo not drawn) gave a melting point of 194 to 196 °C.

Regarding `O=C(CCl)Nc1ccc(F)c(Cl)c1`, the melting point lay in the range of 96 to 98 °C.

`Cc1nc([N+](=O)[O-])c(Br)n1CCC#N` gave a melting point of 152 to 155 °C.

One may read the melting point as the temperature, or range, at which the solid turns liquid.
